Measurements from EP1021178B1, “SELENOPHENE ANTI-TUMOR AGENTS” (Purdue Research Foundation, priority 1996, dated 1997).

What was measured:
Experiment in all cases: NCI human tumor cell panel
Assay type in all cases: cell-based
LOX IMVI = details: read-out: Log10 LC50 (converted)
SK-MEL-2 = details: SK-MEL-2, read-out: Log10 LC50 (converted)
786-0 = details: 786-0, read-out: Log10 LC50 (converted)
K-562 = details: K562, read-out: Log10 LC50 (converted)
OVCAR-5 = details: OVCAR-5, read-out: Log10 LC50 (converted)
DU-145 = details: DU-145, read-out: Log10 LC50 (converted)
OVCAR-4 = details: OVCAR-4, read-out: Log10 LC50 (converted)
MOLT-4 = details: MOLT-4, read-out: Log10 LC50 (converted)
SF-539 = details: SF-539, read-out: Log10 LC50 (converted)
NCI-H522 = details: NCI-H522, read-out: Log10 LC50 (converted)
IGROV1 = details: IGROV-1, read-out: Log10 LC50 (converted)
MCF7/ADR-RES = details: MCF7, read-out: Log10 LC50 (converted)
PC-3 = details: PC-3, read-out: Log10 LC50 (converted)
RPMI-8226 = details: RPMI-8226, read-out: Log10 LC50 (converted)
MCF7 = details: MCF7, read-out: Log10 LC50 (converted)
UACC-62 = details: UACC-62, read-out: Log10 LC50 (converted)
HS 578T = details: read-out: Log10 LC50 (converted)
SW-620 = details: SW-620, read-out: Log10 LC50 (converted)
U251 = details: U-251, read-out: Log10 LC50 (converted)
SN12C = details: read-out: Log10 LC50 (converted)
HCT-116 = details: HCT-116, read-out: Log10 LC50 (converted)

| Structure (SMILES) | CC50 (LOX IMVI) [µM] | CC50 (SK-MEL-2) [µM] | CC50 (786-0) [µM] | LC50 (K-562) [µM] | CC50 (OVCAR-5) [µM] | CC50 (DU-145) [µM] | CC50 (OVCAR-4) [µM] | CC50 (MOLT-4) [µM] | CC50 (SF-539) [µM] | CC50 (NCI-H522) [µM] | CC50 (IGROV1) [µM] | CC50 (MCF7/ADR-RES) [µM] | CC50 (PC-3) [µM] | CC50 (RPMI-8226) [µM] | CC50 (MCF7) [µM] | CC50 (UACC-62) [µM] | CC50 (HS 578T) [µM] | CC50 (SW-620) [µM] | CC50 (U251) [µM] | CC50 (SN12C) [µM] | other results |
| --- | --- | --- | --- | --- | --- | --- | --- | --- | --- | --- | --- | --- | --- | --- | --- | --- | --- | --- | --- | --- | --- |
| O=Cc1ccc(-c2ccc(-c3ccc(C=O)[se]3)[se]2)[se]1 | > 100 | > 100 | > 100 | > 100 | > 100 | > 100 | > 100 | > 100 | > 100 | 95.5 | 74.1 | > 100 | > 100 | > 100 | > 100 | > 100 | > 100 | > 100 | > 100 | > 100 | CC50 (HCT-116): > 100 µM |
| O=Cc1ccc(-c2ccc(-c3cccs3)[se]2)s1 | > 100 | > 100 | > 100 | > 100 | > 100 | > 100 | > 100 | > 100 | > 100 | > 100 | > 100 | > 100 | > 100 | > 100 | > 100 | 85.1 | > 100 | > 100 | > 100 | > 100 | CC50 (HCT-116): > 100 µM |
| O=Cc1ccc(-c2ccc(-c3ccc(C=O)s3)[se]2)s1 | > 100 | > 100 | > 100 | > 100 | > 100 | > 100 | > 100 | > 100 | > 100 | > 100 | > 100 | > 100 | > 100 | > 100 | > 100 | > 100 | > 100 | > 100 | 89.1 | > 100 | CC50 (HCT-116): > 100 µM |
